The test system of data set [1] is MCF7. Description: Potency index, ratio of cisplatin IC50 to compound IC50 for human MCF7 cells. Type of data set: functional.
Data set [2] deals with Vascular endothelial growth factor receptor 2 (Homo sapiens, UniProt P35968). Briefly: Inhibition of VEGFR2 (unknown origin).
In another data set the test system is Rattus norvegicus. Description: Antiinflammatory activity in rat assessed as inhibition of carrageenan-induced paw edema at 25 to 200 mg/kg, po administered 1 hr before carrageenan challenge measured at 6 hrs. Type of data set: functional. Further details: scale not given: the % may be the effect or the level left. To be noted: dose mg/kg 25-200. In general terms: In the carrageenan paw model, swelling and tenderness develop within hours.

Data set [3] can be described thus: Cytotoxicity against human HCT116 cells assessed as cell viability after 24 hrs by MTT assay. The conditions noted are these: HCT-116, 24 h. Type of data set: functional, cell-based.
Another data set deals with HepG2. Description: Cytotoxicity against human HepG2 cells assessed as cell viability after 24 hrs by MTT assay. The conditions noted are these: HepG2, 24 h. Type of data set: functional, cell-based.
Another data set deals with Escherichia coli. Description: Antibacterial activity against Escherichia coli MTCC 443 assessed as growth inhibition at 100 ug/ml by agar well diffusion method. To be noted: read-out: GI. The class given is functional. For orientation: In agar diffusion tests the substance spreads into inoculated agar from a disc or well.
The next data set has as its system Staphylococcus aureus. Briefly: Antibacterial activity against Staphylococcus aureus MTCC 96 assessed as growth inhibition at 100 ug/ml by agar well diffusion method. Type of data set: functional. To be noted: read-out: GI.
Data set [4] concerns Staphylococcus epidermidis. Briefly: Antibacterial activity against Staphylococcus epidermidis MTCC 435 assessed as growth inhibition at 100 ug/ml by agar well diffusion method. The class given is functional. To be noted: read-out: GI.
The test system of another data set is Pseudomonas aeruginosa. Description: Antibacterial activity against Pseudomonas aeruginosa MTCC 741 assessed as growth inhibition at 100 ug/ml by agar well diffusion method. The class given is functional. The conditions noted are these: read-out: GI.
For the next data set, the system named is M21. Description: Antiproliferative activity against human M21 cells. Type of data set: functional, cell-based.
Data set [5] in a line: Antiproliferative activity against human CH27 cells. The class given is functional, cell-based.
A short description of data set [6]: Antiproliferative activity against human Hep3B cells. The class given is functional, cell-based, Hep 3B2.
A short description of data set [7]: Antiproliferative activity against human H460 cells. The class given is functional, cell-based. To be noted: NCI-H460.
A short description of data set [8]: Antiproliferative activity against human HSC3 cells. The conditions noted are these: HSC-3. The class given is functional, cell-based.
Data set [9] relates to MCF7. Description: Antiproliferative activity against human MCF7 cells.
Data set [10] can be described thus: Inhibition of Mycobacterium tuberculosis GlmU.
Data set [11] is described as follows: Inhibition of alpha-glucosidase (unknown origin). Further details: species or system Homo sapiens.
Data set [12] has as its system MCF7. Description: Antiproliferative activity against human MCF7 cells after 48 hrs by SRB assay. Type of data set: functional, cell-based. (In SRB staining, fixed cells bind dye roughly in proportion to their protein.)
The target of data set [13] is Proto-oncogene tyrosine-protein kinase Src (Homo sapiens, UniProt P12931). Briefly: Inhibition of c-Src (unknown origin).
Chain of Proto-oncogene tyrosine-protein kinase Src (P12931 2-536 limits assumed): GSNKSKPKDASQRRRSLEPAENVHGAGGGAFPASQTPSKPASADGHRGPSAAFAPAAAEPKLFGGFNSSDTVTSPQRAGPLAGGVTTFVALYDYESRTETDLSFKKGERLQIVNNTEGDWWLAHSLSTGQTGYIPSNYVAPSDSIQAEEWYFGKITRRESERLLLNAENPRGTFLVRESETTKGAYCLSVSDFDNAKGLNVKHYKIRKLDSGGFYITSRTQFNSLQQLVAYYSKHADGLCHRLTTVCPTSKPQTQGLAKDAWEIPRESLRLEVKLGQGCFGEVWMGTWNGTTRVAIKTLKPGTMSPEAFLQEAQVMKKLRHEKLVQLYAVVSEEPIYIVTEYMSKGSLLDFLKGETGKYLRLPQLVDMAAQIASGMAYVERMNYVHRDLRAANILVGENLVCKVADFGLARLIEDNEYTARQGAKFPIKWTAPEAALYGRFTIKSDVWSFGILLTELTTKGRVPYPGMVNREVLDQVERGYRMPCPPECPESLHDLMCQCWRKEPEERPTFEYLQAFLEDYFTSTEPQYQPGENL
For another data set, the system named is A549. Briefly: Antiproliferative activity against human A549 cells. The class given is functional, cell-based.
A short description of data set [14]: Antiproliferative activity against human PC3 cells by MTT assay. Type of data set: functional, cell-based. The conditions noted are these: PC-3.
Data set [15] concerns PC-3. Description: Induction of apoptosis in human PC3 cells at 1 uM after 72 hrs by Hoechst 33258 staining. Type of data set: functional.
Data set [16] relates to Bcap37. Briefly: Antiproliferative activity against human Bcap37 cells by MTT assay. Type of data set: functional, cell-based.
Data set [17] has as its system PC-3. Briefly: Induction of apoptosis in human PC3 cells at 10 uM after 72 hrs by Hoechst 33258 staining. The class given is functional.
Data set [18] can be described thus: Antiproliferative activity against human PC3 cells at 10 uM by MTT assay. To be noted: PC-3. Type of data set: functional.
The nature of data set [19]: Antiproliferative activity against human BGC823 cells by MTT assay. The class given is functional, cell-based. The conditions noted are these: BGC-823.
Data set [20] is described as follows: Antiproliferative activity against human BGC823 cells at 10 uM by MTT assay. Type of data set: functional. The conditions noted are these: BGC-823.
In data set [21] the test system is Bcap37. Description: Antiproliferative activity against human Bcap37 cells at 10 uM by MTT assay. The class given is functional.
Data set [22] has as its system Mycobacterium tuberculosis. Briefly: Antitubercular activity against Mycobacterium tuberculosis H37Rv assessed as growth inhibition. Type of data set: functional.
Data set [23] in a line: Antiproliferative activity against human NCI60 cells. Type of data set: functional.
A further data set has as its system SNB-75. Briefly: Growth inhibition of human SNB75 cells after 48 hrs by SRB assay. Type of data set: functional. The conditions noted are these: SNB-75, 48 h.
Another data set relates to RAW264.7. Briefly: Antiinflammatory activity in mouse RAW264.7 cells assessed as inhibition of LPS-induced nitric oxide production at 20 ug/ml after 24 hrs by Griess method. Type of data set: functional. The conditions noted are these: RAW264.7, 24 h.
Data set [24] in a line: Protective index, ratio of neurotoxicity in mouse by rotarod test to ED50 for inhibition of maximal electroshock-induced seizures in mouse. The class given is toxicity, organism-based. To be noted: in vivo, read-out: PI.

By IC50 is commonly meant the concentration needed to halve the response being measured. Broadly, the inhibition is the percentage by which the read-out fell short of the control. Usually GI50 stands for the concentration giving 50% growth inhibition.

Structures are written as SMILES. In brackets after ≈: the same amount, converted by molar mass.

Chain of Vascular endothelial growth factor receptor 2 (P35968 whole entry): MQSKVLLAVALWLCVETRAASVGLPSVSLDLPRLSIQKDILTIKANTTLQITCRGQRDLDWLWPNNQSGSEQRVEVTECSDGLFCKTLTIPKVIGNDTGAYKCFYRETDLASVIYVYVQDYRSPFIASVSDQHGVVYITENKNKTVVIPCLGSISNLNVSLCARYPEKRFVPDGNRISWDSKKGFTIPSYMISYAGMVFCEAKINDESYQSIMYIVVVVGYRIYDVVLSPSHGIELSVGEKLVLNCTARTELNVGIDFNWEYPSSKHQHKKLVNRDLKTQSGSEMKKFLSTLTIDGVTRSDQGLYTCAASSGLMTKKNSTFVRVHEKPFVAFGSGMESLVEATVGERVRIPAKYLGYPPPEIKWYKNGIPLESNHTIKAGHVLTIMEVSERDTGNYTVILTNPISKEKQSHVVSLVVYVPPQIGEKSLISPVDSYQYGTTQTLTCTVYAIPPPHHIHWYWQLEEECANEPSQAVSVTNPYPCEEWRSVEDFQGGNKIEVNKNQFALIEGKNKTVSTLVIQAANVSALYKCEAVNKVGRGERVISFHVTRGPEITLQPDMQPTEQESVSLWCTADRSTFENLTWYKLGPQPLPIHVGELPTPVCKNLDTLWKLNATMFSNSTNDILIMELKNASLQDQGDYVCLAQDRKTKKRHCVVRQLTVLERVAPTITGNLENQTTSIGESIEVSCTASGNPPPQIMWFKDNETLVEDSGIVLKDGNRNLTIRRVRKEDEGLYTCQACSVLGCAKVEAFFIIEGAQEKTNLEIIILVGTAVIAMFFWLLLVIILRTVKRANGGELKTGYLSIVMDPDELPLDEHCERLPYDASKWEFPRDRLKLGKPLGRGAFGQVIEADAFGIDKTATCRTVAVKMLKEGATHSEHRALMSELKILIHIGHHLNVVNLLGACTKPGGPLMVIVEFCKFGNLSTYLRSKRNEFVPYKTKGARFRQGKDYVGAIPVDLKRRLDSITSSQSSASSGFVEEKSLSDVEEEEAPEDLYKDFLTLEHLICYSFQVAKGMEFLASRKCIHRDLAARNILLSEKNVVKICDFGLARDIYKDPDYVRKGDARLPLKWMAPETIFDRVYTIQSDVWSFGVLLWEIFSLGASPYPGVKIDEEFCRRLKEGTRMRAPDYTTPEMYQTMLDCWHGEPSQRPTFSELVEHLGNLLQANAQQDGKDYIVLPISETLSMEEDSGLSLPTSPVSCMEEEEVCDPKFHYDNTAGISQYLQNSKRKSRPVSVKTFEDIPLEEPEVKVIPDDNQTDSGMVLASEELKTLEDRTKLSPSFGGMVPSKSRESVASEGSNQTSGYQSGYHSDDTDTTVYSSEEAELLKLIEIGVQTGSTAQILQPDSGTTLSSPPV

Take `N#Cc1c(F)c(F)c2nc(-c3ccc(C(F)(F)F)cc3)nc(N)c2c1F`: the “Ratio IC50” value in the data set on MCF7 [1] is “<=40”.
Consider `O=C(Nc1ccc(Nc2ccc([N+](=O)[O-])c3ncnc(O)c23)cc1)Nc1ccc(C(F)(F)F)cc1Cl`, for which the IC50 in data set [2] is 12 nM.
In the case of `CC(=O)NS(=O)(=O)c1ccc(-n2c(C)nc3c(I)cc(I)cc3c2=O)cc1`, the Activity in the data set on Rattus norvegicus was 74%.
Consider `CCOc1nc2nc(SC)nn2c2ccccc12`, for which the IC50 in data set [3] turned out to be 17.4 µg/mL (≈ 66.8 µM); in the data set on HepG2, 19.2 µg/mL (≈ 73.8 µM).
`Cc1noc(NS(=O)(=O)c2ccc(-n3c(C)nc4c(I)cc(I)cc4c3=O)cc2)c1C`: the inhibition of growth at 100 µg/mL (with Escherichia coli; in the data set on Staphylococcus aureus; in data set [4]; with Pseudomonas aeruginosa) was 61.9% in each case.
On to `COc1ccc2nc(-c3ccc4ccccc4c3)[nH]c(=O)c2c1`, for which the IC50 is 90 nM in the data set on M21; 90 nM in data set [5]; 1940 nM in data set [6]; 70 nM in data set [7]; 150 nM in [8].
Turning to `COc1cc2nccc(Oc3ccc(NC(=O)Nc4cc(C)on4)c(Cl)c3)c2cc1OC` [TIVOZANIB], in the data set with MCF7 [9], 380 nM corresponded to half-maximal inhibition (IC50).
Take `COc1cc2ncnc(Nc3ccc(NC(=O)c4cccc(O)c4)cc3)c2cc1OC`: the half-maximal inhibitory concentration (IC50) in data set [10] was 74000 nM.
Consider `Cc1ncc([N+](=O)[O-])n1CCOc1ncnc2ccccc12`, for which the IC50 in the data set with MCF7 [9] is 350 nM; in [2], 2.72 nM.
In turn, `O=c1c2cc(-c3c(Cl)cccc3Cl)ccc2nc(C2CC2)n1Cc1cccnc1` gave an IC50 in [11] of less than 10000 nM.
In turn, `O=C1CCC(=O)N1n1c(COc2ccccc2)nc2ccc(I)cc2c1=O` gave an IC50 in the data set on MCF7 [12] of 5490 nM.
With `O=C(Cc1cccc(Br)c1)Nc1ccc2ncnc(Nc3ccc(Br)cc3)c2c1`, the figures for the IC50 (in data set [13]; in the data set on A549) were 27.3 nM and 3420 nM, respectively.
For `COc1cccc2c1C(=O)c1c(O)c3c(c(O)c1C2=O)C[C@@](O)(C(=O)CO)C[C@@H]3O[C@H]1C[C@H](N)[C@H](O)[C@H](C)O1` [DOXORUBICIN], half-maximal inhibition in the data set with MCF7 [12] (IC50) required 5490 nM.
Turning to `CSc1nc2n(n1)c1ccccc1c1nnc(-c3ccncc3)n12`, the IC50 turned out to be 11.5 µg/mL (≈ 34.5 µM) in data set [3] and 9.34 µg/mL (≈ 28 µM) in the data set with HepG2.
Take `COc1cc2ncnc(NCCc3ccccc3F)c2c(OC)c1OC`: the IC50 in data set [14] was determined as 6200 nM; with Bcap37 [16], 3100 nM; in data set [19] it was 3200 nM. The figures for the Activity with PC-3 [15] and with PC-3 [17] were 11.6% and 31.8%, respectively. Also, the inhibition at 10 µM in data set [18] was 90.6%; in data set [20] it was 88.2%; in the data set on Bcap37 [21], 90.4%.
On to `CO[C@H]1/C=C/O[C@@]2(C)Oc3c(C)c(O)c4c(O)c(c(/C=N/N5CCN(C)CC5)c(O)c4c3C2=O)NC(=O)/C(C)=C\C=C\[C@H](C)[C@H](O)[C@@H](C)[C@@H](O)[C@@H](C)[C@H](OC(C)=O)[C@@H]1C` [RIFAMPIN], for which the “growth inhibition (GI)” value in data set [22] is on record as 99%.
In turn, `COc1cc2c(=O)n(-c3ccccc3Cl)c(=O)[nH]c2cc1NC(=O)NCCc1ccccc1Cl` gave a GI50 in data set [23] of 363 nM.
For `O=c1c2ccc(Cl)cc2nc(-c2ccccc2)n1/N=C/c1ccc(Cl)cc1`, the GI50 in the data set with SNB-75 was 2570 nM. Also, the CC50 with SNB-75 (read-out: pLC50 (the source's name) (converted)) was 39800 nM. In addition, the TGI in the data set with SNB-75 (read-out: pTGI (converted)) is 7590 nM.
For the compound `COc1cc2c(=O)n(-c3ccccc3)c(=O)[nH]c2cc1NC(=O)NCCc1ccccc1Cl`, the GI50 in data set [23] is 794 nM.
Regarding `O=c1c2cc(Br)cc(Br)c2nc(-c2ccccc2)n1-c1ccc(C2=NN(c3ccccc3)C(Cc3ccccc3)C2)cc1` (centres undefined), in the data set with MCF7 [9], 1.7 µg/mL corresponded to half-maximal inhibition (IC50).
As to `CCn1c(=O)c2ccccc2n2nc(SC)nc12`, in the data set with RAW264.7, the inhibition at 20 µg/mL came to 50%.
`Cc1nc2c(I)cc(I)cc2c(=O)n1-c1ccc(S(=O)(=O)Nc2ncccn2)cc1`: the inhibition of growth at 100 µg/mL (with Escherichia coli; in the data set with Staphylococcus aureus; in data set [4]; in the data set on Pseudomonas aeruginosa) was 61.9% in each case.
For the compound `CSc1nc2nc(Cl)c3ccccc3n2n1`, the inhibition at 20 µg/mL in the data set on RAW264.7 was determined as 50%.
In the case of `O=c1[nH]c(-c2ccc3ccccc3c2)nc2ccc(N3CCCC3)cc12`, the half-maximal inhibitory concentration (IC50) was 30 nM in the data set with M21; 50 nM in [5]; 1350 nM in data set [6]; 80 nM in data set [7]; 40 nM in data set [8].
Turning to `Nc1nnc2c3ccccc3nc(-c3ccccc3Br)n12`, in data set [24], the selectivity ratio was found to be 5.8.
Turning to `NNC(=O)c1ccncc1` [ISONIAZID], in data set [22], the “growth inhibition (GI)” value was 99%.
`COc1cc2ncnc(Nc3cccc(Br)c3)c2cc1OC`: half-maximal inhibition in data set [14] (IC50) required 8300 nM.

The values are drawn from ChEMBL document CHEMBL3351697, “Recent advances in the structural library of functionalized quinazoline and quinazolinone scaffolds: synthetic approaches and multifarious applications” (Eur J Med Chem, 2014).
